These results are taken from US6887890B2, “Compounds exhibiting thrombopoietin-like activities” (Chugai Seiyaku Kabushiki Kaisha, priority 2000, dated 2005).

The structures appear in SMILES notation.

The test has as its system Mpl-expressing Ba/F3 cell line (human mpl gene). As to the kind of experiment: Measurement of thrombopoietin (TPO) activity: viable cell count of Mpl-expressing Ba/F3 cell line (Cell Count Reagent SF, absorbance 450 nm). Type of test: cell-based. To be noted: for Concentration: concentration corresponding to the maximum TPO activity value; for TPO activity: maximum TPO activity value, ODt/ODs×100 relative to maximum reaction of human TPO, Mpl-expressing Ba/F3 cells cultured at 37° C. for one day, at the concentration given. As for the experimental part: The TPO activities of the compounds of the invention obtained in the aforementioned examples were measured by the procedure described below, for evaluation of their thrombopoietic effects.
Establishment of Mpl-expressing Ba/F3 Cell Line
The human mpl gene was cloned from cDNAs of the human erythroleukemia cell line HEL by PCR, and was incorporated into pCOS1 to construct an expression vector. The expression vector was transfected into Ba/F3 cells by electroporation method, and an Mpl-expressing Ba/F3 clone was established.
Measurement of Thrombopoietin (TPO) Activity
The cytokine-eliminated Mpl-expressing Ba/F3 line was plated in a 96-well plate at 25,000 cells/well. DMSO solutions containing the compounds obtained in each of the examples were then prepared to different specified concentration ranges, and each solution was added to the Mpl-expressing Ba/F3 cell line (final DMSO concentration: ≦0.1%), and the cell were cultured at 37° C. for one day. Human TPO (by R&D Systems or Genzyme) was used as a positive control.
Each of the cultured Mpl-expressing Ba/F3 cell lines was subjected to absorbance measurement at a wavelength of 450 nm (reference wavelength: 620 nm), corresponding to the viable cell count, using Cell Count Reagent SF (by Nacalai Tesque Inc.). The TPO activity of each compound for the Mpl-expressing Ba/F3 cell line was determined based on the following formula. TPO activity (%)=ODt/ODs×100
ODs: Absorbance at maximum reaction of human TPO (wavelength: 450-620 nm).
ODt: Absorbance of test solution (wavelength: 450-620 nm).
Tables 1 and 2 show the maximum TPO activity values and the corresponding concentrations of each compound, as obtained by the test described above.

`Cl.NCCCC[C@H](NC(=O)Cc1c[nH]c2ccccc12)C(=O)Nc1ccc(C(c2ccc(NC(=O)[C@H](CCCCN)NC(=O)Cc3c[nH]c4ccccc34)cc2)c2ccc(NC(=O)[C@H](CCCCN)NC(=O)Cc3c[nH]c4ccccc34)cc2)cc1` [Example 1, tris[4-[N-α-[2-(1H-indol-3-yl)acetyl]-L-lysyl]aminophenyl]methane hydrochloride]: the Concentration was 25 µM and the TPO activity was found to be 37.6%.

As to `COc1ccc2[nH]c(C)c(CC(=O)N[C@@H](CCCCN)C(=O)Nc3ccc(C(c4ccc(NC(=O)[C@H](CCCCN)NC(=O)Cc5c(C)[nH]c6ccc(OC)cc56)cc4)c4ccc(NC(=O)[C@H](CCCCN)NC(=O)Cc5c(C)[nH]c6ccc(OC)cc56)cc4)cc3)c2c1.Cl` [Example 6, tris[4-[N-α-[2-(5-methoxy-2-methyl-1H-indol-3-yl)acetyl]-L-lysyl]aminophenyl]methane hydrochloride], the Concentration is 25 µM and the TPO activity was 17.4%.

In the case of `Cc1[nH]c2ccccc2c1CC(=O)N[C@@H](CCCCN)C(=O)Nc1ccc(C(c2ccc(NC(=O)[C@H](CCCCN)NC(=O)Cc3c(C)[nH]c4ccccc34)cc2)c2ccc(NC(=O)[C@H](CCCCN)NC(=O)Cc3c(C)[nH]c4ccccc34)cc2)cc1.Cl` [Example 7, tris[4-[N-α-[2-(2-methyl-1H-indol-3-yl)acetyl]-L-lysyl]aminophenyl]methane hydrochloride], the Concentration was 21 µM and the TPO activity is given as 24.7%.

Consider `Cl.NCCCC[C@H](NC(=O)Cc1ccsc1)C(=O)Nc1ccc(C(c2ccc(NC(=O)[C@H](CCCCN)NC(=O)Cc3ccsc3)cc2)c2ccc(NC(=O)[C@H](CCCCN)NC(=O)Cc3ccsc3)cc2)cc1` [Example 13, tris[4-[N-α-[2-(thiophen-3-yl)acetyl]-L-lysyl]aminophenyl]methane hydrochloride], for which the Concentration was 25 µM and the TPO activity is on record as 25.7%.

On to `Cl.NCCCC[C@H](NC(=O)c1cccnc1)C(=O)Nc1ccc(C(c2ccc(NC(=O)[C@H](CCCCN)NC(=O)c3cccnc3)cc2)c2ccc(NC(=O)[C@H](CCCCN)NC(=O)c3cccnc3)cc2)cc1` [Example 17, tris[4-[N-α-(3-pyridylcarbonyl)-L-lysyl]aminophenyl]methane hydrochloride], for which the Concentration came out at 50 µM and the TPO activity was 16.5%.

In the case of `Cl.NCCCC[C@H](NC(=O)Cc1c[nH]c2ccc(O)cc12)C(=O)Nc1ccc(C(c2ccc(NC(=O)[C@H](CCCCN)NC(=O)Cc3c[nH]c4ccc(O)cc34)cc2)c2ccc(NC(=O)[C@H](CCCCN)NC(=O)Cc3c[nH]c4ccc(O)cc34)cc2)cc1` [Example 18, tris[4-[N-α-[2-(5-hydroxy-1H-indol-3-yl)acetyl]-L-lysyl]aminophenyl]methane hydrochloride], the Concentration worked out at 50 µM and the TPO activity is listed as 46.5%.

`Cl.NCCCC[C@H](NC(=O)Cc1ccc(O)cc1)C(=O)Nc1ccc(C(c2ccc(NC(=O)[C@H](CCCCN)NC(=O)Cc3ccc(O)cc3)cc2)c2ccc(NC(=O)[C@H](CCCCN)NC(=O)Cc3ccc(O)cc3)cc2)cc1` [Example 19, tris[4-[N-α-[2-(4-hydroxyphenyl)acetyl]-L-lysyl]aminophenyl]methane hydrochloride]: the Concentration turned out to be 50 µM and the TPO activity is reported as 19.1%.

As for `Cc1[nH]c2ccccc2c1CC(=O)N[C@H](CCCCN)C(=O)Nc1ccc(C(c2ccc(NC(=O)[C@@H](CCCCN)NC(=O)Cc3c(C)[nH]c4ccccc34)cc2)c2ccc(NC(=O)[C@@H](CCCCN)NC(=O)Cc3c(C)[nH]c4ccccc34)cc2)cc1` [Example 21, tris[4-[N-α-[2-(2-methyl-1H-indol-3-yl)acetyl]-D-lysyl]aminophenyl]methane], the Concentration was found to be 25 µM and the TPO activity amounted to 60.1%.

For the compound `Cl.NCCCC[C@@H](NC(=O)Cc1ccsc1)C(=O)Nc1ccc(C(c2ccc(NC(=O)[C@@H](CCCCN)NC(=O)Cc3ccsc3)cc2)c2ccc(NC(=O)[C@@H](CCCCN)NC(=O)Cc3ccsc3)cc2)cc1` [Example 23, tris[4-[N-α-[2-(thiophen-3-yl)acetyl]-D-lysyl]aminophenyl]methane hydrochloride], the Concentration was determined as 25 µM and the TPO activity is listed as 48.0%.

Consider `CN(C)CCCC[C@H](NC(=O)Cc1c[nH]c2ccccc12)C(=O)Nc1ccc(C(c2ccc(NC(=O)[C@H](CCCCN(C)C)NC(=O)Cc3c[nH]c4ccccc34)cc2)c2ccc(NC(=O)[C@H](CCCCN(C)C)NC(=O)Cc3c[nH]c4ccccc34)cc2)cc1` [Example 29, tris[4-[N-α-[2-(1H-indol-3-yl)acetyl]-N-εdimethyl-L-lysyl]aminophenyl]methane], for which the Concentration was 25 µM and the TPO activity turned out to be 98.5%.

With `Cc1[nH]c2ccccc2c1CC(=O)N[C@@H](CCCCN(C)C)C(=O)Nc1ccc(C(c2ccc(NC(=O)[C@H](CCCCN(C)C)NC(=O)Cc3c(C)[nH]c4ccccc34)cc2)c2ccc(NC(=O)[C@H](CCCCN(C)C)NC(=O)Cc3c(C)[nH]c4ccccc34)cc2)cc1` [Example 30, tris[4-[N-α-[2-(2-methyl-1H-indol-3-yl)acetyl]-N-ε-dimethyl-L-lysyl]aminophenyl]methane], the Concentration was 25 µM and the TPO activity is reported as 108%.

In the case of `COc1ccc2[nH]c(C)c(CC(=O)N[C@@H](CCCCN(C)C)C(=O)Nc3ccc(C(c4ccc(NC(=O)[C@H](CCCCN(C)C)NC(=O)Cc5c(C)[nH]c6ccc(OC)cc56)cc4)c4ccc(NC(=O)[C@H](CCCCN(C)C)NC(=O)Cc5c(C)[nH]c6ccc(OC)cc56)cc4)cc3)c2c1` [Example 31], the Concentration turned out to be 25 µM and the TPO activity is on record as 96.4%.

With `CN(C)CCCC[C@H](NC(=O)Cc1ccsc1)C(=O)Nc1ccc(C(c2ccc(NC(=O)[C@H](CCCCN(C)C)NC(=O)Cc3ccsc3)cc2)c2ccc(NC(=O)[C@H](CCCCN(C)C)NC(=O)Cc3ccsc3)cc2)cc1` [Example 32, tris[4-[N-α-[2-(thiophen-3-yl)acetyl]-N-ε-dimethyl-L-lysyl]aminophenyl]methane], the Concentration is 25 µM and the TPO activity is on record as 87.1%.

In the case of `Cl.NCCCSC[C@H](NC(=O)Cc1c[nH]c2ccccc12)C(=O)Nc1ccc(C(c2ccc(NC(=O)[C@H](CSCCCN)NC(=O)Cc3c[nH]c4ccccc34)cc2)c2ccc(NC(=O)[C@H](CSCCCN)NC(=O)Cc3c[nH]c4ccccc34)cc2)cc1` [Example 33, tris[4-[N-[2-(1H-indol-3-yl)acetyl]-S-(3-aminopropyl)-L-cystyl]aminophenyl]methane hydrochloride], the Concentration worked out at 50 µM and the TPO activity is 17.4%.

In the case of `Cl.N=C(N)NCCC[C@H](NC(=O)Cc1ccsc1)C(=O)Nc1ccc(C(c2ccc(NC(=O)[C@H](CCCNC(=N)N)NC(=O)Cc3ccsc3)cc2)c2ccc(NC(=O)[C@H](CCCNC(=N)N)NC(=O)Cc3ccsc3)cc2)cc1` (stereo partly drawn) [Example 38, tris[4-[N-α-[2-(thiophen-3-yl)acetyl]-L-arginyl]aminophenyl]methane hydrochloride], the Concentration was 25 µM and the TPO activity is on record as 124%.

For `Cc1[nH]c2ccccc2c1CC(=O)N[C@H](CCCNC(=N)N)C(=O)Nc1ccc(C(c2ccc(NC(=O)[C@@H](CCCNC(=N)N)NC(=O)Cc3c(C)[nH]c4ccccc34)cc2)c2ccc(NC(=O)[C@@H](CCCNC(=N)N)NC(=O)Cc3c(C)[nH]c4ccccc34)cc2)cc1.Cl` (stereo partly drawn) [Example 39, tris[4-[N-α-[2-(2-methyl-1H-indol-3-yl)acetyl]-D-arginyl]aminophenyl]methane hydrochloride], the Concentration stood at 12.5 µM and the TPO activity is on record as 80.4%.

In the case of `Cl.N=C(N)NCCC[C@@H](NC(=O)Cc1ccsc1)C(=O)Nc1ccc(C(c2ccc(NC(=O)[C@@H](CCCNC(=N)N)NC(=O)Cc3ccsc3)cc2)c2ccc(NC(=O)[C@@H](CCCNC(=N)N)NC(=O)Cc3ccsc3)cc2)cc1` (stereo partly drawn) [Example 40, tris[4-[N-α-[2-(thiophen-3-yl)acetyl]-D-arginyl]aminophenyl]methane hydrochloride], the Concentration turned out to be 12.5 µM and the TPO activity is 59.0%.

`NCC[C@H](NC(=O)Cc1c[nH]c2ccccc12)C(=O)Nc1ccc(C(c2ccc(NC(=O)[C@H](CCN)NC(=O)Cc3c[nH]c4ccccc34)cc2)c2ccc(NC(=O)[C@H](CCN)NC(=O)Cc3c[nH]c4ccccc34)cc2)cc1.O=C(O)C(F)(F)F` [Example 131, tris[4-[β-aminomethyl-N-[2-(1H-indol-3-yl)acetyl]-L-alanyl]aminophenyl]methane trifluoroacetate]: the Concentration was determined as 50 µM and the TPO activity came out at 88.0%.

On to `Cc1[nH]c2ccccc2c1CC(=O)N[C@@H](CCN)C(=O)Nc1ccc(C(c2ccc(NC(=O)[C@H](CCN)NC(=O)Cc3c(C)[nH]c4ccccc34)cc2)c2ccc(NC(=O)[C@H](CCN)NC(=O)Cc3c(C)[nH]c4ccccc34)cc2)cc1.O=C(O)C(F)(F)F` [Example 132, tris[4-[β-aminomethyl-N-[2-(2-methyl-1H-indol-3-yl)acetyl]-L-alanyl]aminophenyl]methane trifluoroacetate], for which the Concentration amounted to 50 µM and the TPO activity amounted to 22.3%.
